In ChEMBL document CHEMBL1201862, “PubChem BioAssay data set” (2004):
The source made the active and inactive calls.

What was measured:
[1] = Shn3 3'UTR reporter inhibitors, dose response, cell-based, Clone20 osteoblasts, firefly luciferase, cherry-picked (AID 624132); assay type: functional;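 note: firefly luciferase luminescence from reporter carrying the Shn3 3'UTR in osteoblasts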
[2] = system: HEK293; test: cells; assay type: functional, cell-based; details: Homo sapiens
[3] = biological target: Nucleotide-binding oligomerization domain-containing protein 2 (Homo sapiens, UniProt Q9HC29); test: NOD2 signaling inhibitors, cell-based, luminescence, uHTS, HEK293 (AID 1566); assay type: functional
[4] = cells; assay type: functional
[5] = system: HEK293; test: NOD2 signaling inhibitors in MDP-stimulated cells, cell-based, uHTS, luminescence (AID 2001); assay type: functional; details: Homo sapiens
[6] = cytotoxicity toward DRD oncogenic fibroblasts, dose response, cell-based, non-viral oncogenic, luminescence (AID 1934); assay type: functional; details: Homo sapiens
[7] = system: HEK293; test: cells; assay type: functional, cell-based; details: Homo sapiens; remark: listed apart in the source
[8] = system: HEK293; test: cells; assay type: functional, cell-based; details: Homo sapiens; remark: listed apart in the source
[9] = cytotoxicity toward NIH3T3 fibroblasts, dose response, counter-screen, cell-based, ATP luminescence, mouse fibroblasts (AID 2010); assay type: functional;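 note: cells exposed to compound for about 90 hours before reading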
[10] = system: BJ; test: cytotoxicity toward BJ-TERT fibroblasts, dose response, cell-based, RAS-independent, luminescence (AID 1933); assay type: functional; details: Homo sapiens
[11] = HepG2 cell cytotoxicity, dose response, cytotoxicity control for non-replicating M. tuberculosis project (AID 489018); assay type: functional; details: Mycobacterium tuberculosis
[12] = system: HEK293; test: NOD1 signaling inhibitors, primary screen, cell-based, luminescence, uHTS (AID 1578); assay type: functional; details: Homo sapiens
[13] = growth suppression of PTEN-null colon cells, dose response, cell-based, HCT116 PTEN knockout (AID 1047); assay type: functional;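 note: HCT116 colon tumor cells with PTEN knocked out; cells exposed to compound for 60 hours before readout; potency for loss of cell viability measured by luminescence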
[14] = HepG2 cell cytotoxicity, dose response, cytotoxicity control for Shn3 inhibitor project, CellTiter-Glo, cherry-picked (AID 624134); assay type: functional, cell-based
[15] = inhibitors of intracellular T. cruzi replication, confirmation, NIH3T3 host cells, beta-gal luminescence (AID 2044); assay type: functional, cell-based;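 note: intracellular parasites grown in NIH/3T3 mouse fibroblasts as host cells; luminescent beta-galactosidase reporter signal from transgenic T. cruzi replicating inside host cells; inhibitors lower the luminescence signal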
[16] = system: BJ; test: cytotoxicity toward BJ-TERT-LT-ST fibroblasts, dose response, cell-based, RAS-independent, luminescence (AID 1935); assay type: functional; details: Homo sapiens;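 note: BJ fibroblasts immortalized with TERT plus LT and ST oncogenes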
[17] = Vero E6 cell cytotoxicity, dose response, cytotoxicity control for non-replicating M. tuberculosis project, secondary assay (AID 492998); assay type: functional, VeroE6; details: Vero C1008
[18] = growth suppression of beta-catenin-knockout colon cells, dose response, cell-based, HCT116, human colon tumor (AID 1045); assay type: functional;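 note: HCT116 colon tumor cells with beta catenin knocked out; cells exposed to compound for 60 hours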
[19] = control 3'UTR Renilla luciferase suppression, dose response, counter-screen for Shn3 inhibitor project, cell-based, Clone20-Shn3RL, cherry-picked (AID 624133); assay type: functional
[20] = biological target: FAD-linked sulfhydryl oxidase ALR (Homo sapiens, UniProt P55789); test: inhibitors of human ALR sulfhydryl oxidase, dose response, biochemical, H2O2 detection, luminescence, cherry-pick (AID 493248)
[21] = system: BJ; test: cells; assay type: functional, cell-based; details: Homo sapiens
[22] = THP-1 cell cytotoxicity, dose response, cytotoxicity control for non-replicating M. tuberculosis project (AID 489025); assay type: functional
[23] = biological target: Heat shock protein HSP 90-alpha (Homo sapiens, UniProt P07900); assay type: functional, organism-based
[24] = system: INS1; test: beta cell apoptosis inhibitors, cytokine rescue, dose response, luminescence, retest (AID 449756); assay type: functional, cell-based; details: Rattus norvegicus;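 note: cell death triggered by IL-1 beta plus TNF-alpha plus IFN-gamma mixture; protective hits raise ATP signal compared with cytokine alone wells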
[25] = biological target: T1, Kappa-type opioid receptor (Homo sapiens, UniProt P41145); test: SAR analysis of small molecule antagonists of the kappa opioid receptor via a luminescent beta-arrestin assay - Set 3. [Related pubchem assays (depositor defined):AID1777, AID1778, AID1785, AID1786, AID1966, AID2133, AID2136, AID2285, AID2495]; assay type: functional
[26] = biological target: T1, Kappa-type opioid receptor; test: SAR analysis of Antagonists of the Kappa Opioid Receptor (KOR) using an Image-Based Assay - Set 4. [Related pubchem assays (depositor defined):AID1777, AID1785]; assay type: functional
[27] = biological target: Delta-type opioid receptor (Homo sapiens, UniProt P41143); test: SAR Analysis of Antagonists of the DOR Receptor using an Image-Based Assay - Set 3. [Related pubchem assays (depositor defined):AID1777, AID1785]; assay type: functional;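 note: U2OS cells expressing DOR1 and beta-arrestin GFP stimulated with 100 nM SNC80; imaging of GFP-tagged beta-arrestin moving into spots after receptor activation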
[28] = biological target: Mu-type opioid receptor (Homo sapiens, UniProt P35372); test: SAR Analysis of Antagonists of the MOR Receptor using an Image-Based Assay - Set 3. [Related pubchem assays (depositor defined):AID1777, AID1785, AID1786, AID1966, AID2133, AID2136, AID2284, AID2285, AID2420]; assay type: functional
[29] = system: T-cell; test: inhibitors of CD8+ T cell–vesicle binding, dose response, mouse 2C CD8+ T cells, flow cytometry (AID 485284); assay type: functional
[30] = system: CHO; test: cytotoxicity in TLR9-MyD88 CHO cells, dose response, cytotoxicity control for TLR9-MyD88 binding inhibitor project, cell-based, luminescence (AID 588339); assay type: functional, hamster; details: Cricetulus griseus;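 note: CHO cells stably coexpressing TLR9 and MyD88 fusions from primary screen; compound exposure lasted 48 hours before viability readout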
[31] = biological target: Hexokinase (Trypanosoma brucei, UniProt Q38C41); test: Confirmation assay for inhibitors of Trypanosoma brucei hexokinase 1-Analogue-first series. [Related pubchem assays (depositor defined):AID1430, AID1632, AID2516, AID2560, AID2579, AID2600, AID449725, AID492951]; assay type: functional
[32] = biological target: Beta Lactamase (Pseudomonas aeruginosa, UniProt Q932Y6); test: beta-lactamase reporter inhibitor potency, dose response, artefact control for TLR9-MyD88 binding inhibitor project, BLA reporter cells, FRET fluorescence (AID 588341); assay type: cell-based;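 note: cell based assay in CHO-K1 cells stably expressing beta-lactamase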
[33] = biological target: Glucose-6-phosphate 1-dehydrogenase (Homo sapiens, UniProt P11413); test: human G6PD enzyme inhibitors, dose response, selectivity assay for P. falciparum G6PD inhibitor project, biochemical, fluorescence (AID 504792); assay type: functional
[34] = biological target: X-box-binding protein 1 (Homo sapiens, UniProt P17861); assay type: functional, Cricetulus griseus;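 note: confirmatory dose-response counter-screen serving a CHOP assay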
[35] = biological target: DNA damage-inducible transcript 3 protein (Mus musculus, UniProt P35639); assay type: functional, Cricetulus griseus
DNA damage-inducible transcript 3 protein, sequence (P35639 whole entry): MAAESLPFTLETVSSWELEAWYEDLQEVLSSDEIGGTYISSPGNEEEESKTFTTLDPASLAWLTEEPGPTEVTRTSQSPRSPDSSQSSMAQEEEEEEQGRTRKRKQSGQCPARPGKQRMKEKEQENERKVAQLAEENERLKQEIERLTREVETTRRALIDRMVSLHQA

T1 sequence (P41145 whole entry): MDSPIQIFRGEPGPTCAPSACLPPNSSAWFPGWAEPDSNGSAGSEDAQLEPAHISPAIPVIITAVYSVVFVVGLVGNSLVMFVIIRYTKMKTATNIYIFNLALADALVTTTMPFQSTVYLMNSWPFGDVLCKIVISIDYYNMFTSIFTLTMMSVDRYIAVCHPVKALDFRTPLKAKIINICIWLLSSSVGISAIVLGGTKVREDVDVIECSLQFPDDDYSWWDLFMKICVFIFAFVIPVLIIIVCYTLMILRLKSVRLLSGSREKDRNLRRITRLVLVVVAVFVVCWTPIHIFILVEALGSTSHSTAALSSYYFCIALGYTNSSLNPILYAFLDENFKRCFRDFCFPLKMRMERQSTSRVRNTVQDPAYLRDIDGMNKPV
Nucleotide-binding oligomerization domain-containing protein 2, sequence (Q9HC29 whole entry, the tested form may be a part): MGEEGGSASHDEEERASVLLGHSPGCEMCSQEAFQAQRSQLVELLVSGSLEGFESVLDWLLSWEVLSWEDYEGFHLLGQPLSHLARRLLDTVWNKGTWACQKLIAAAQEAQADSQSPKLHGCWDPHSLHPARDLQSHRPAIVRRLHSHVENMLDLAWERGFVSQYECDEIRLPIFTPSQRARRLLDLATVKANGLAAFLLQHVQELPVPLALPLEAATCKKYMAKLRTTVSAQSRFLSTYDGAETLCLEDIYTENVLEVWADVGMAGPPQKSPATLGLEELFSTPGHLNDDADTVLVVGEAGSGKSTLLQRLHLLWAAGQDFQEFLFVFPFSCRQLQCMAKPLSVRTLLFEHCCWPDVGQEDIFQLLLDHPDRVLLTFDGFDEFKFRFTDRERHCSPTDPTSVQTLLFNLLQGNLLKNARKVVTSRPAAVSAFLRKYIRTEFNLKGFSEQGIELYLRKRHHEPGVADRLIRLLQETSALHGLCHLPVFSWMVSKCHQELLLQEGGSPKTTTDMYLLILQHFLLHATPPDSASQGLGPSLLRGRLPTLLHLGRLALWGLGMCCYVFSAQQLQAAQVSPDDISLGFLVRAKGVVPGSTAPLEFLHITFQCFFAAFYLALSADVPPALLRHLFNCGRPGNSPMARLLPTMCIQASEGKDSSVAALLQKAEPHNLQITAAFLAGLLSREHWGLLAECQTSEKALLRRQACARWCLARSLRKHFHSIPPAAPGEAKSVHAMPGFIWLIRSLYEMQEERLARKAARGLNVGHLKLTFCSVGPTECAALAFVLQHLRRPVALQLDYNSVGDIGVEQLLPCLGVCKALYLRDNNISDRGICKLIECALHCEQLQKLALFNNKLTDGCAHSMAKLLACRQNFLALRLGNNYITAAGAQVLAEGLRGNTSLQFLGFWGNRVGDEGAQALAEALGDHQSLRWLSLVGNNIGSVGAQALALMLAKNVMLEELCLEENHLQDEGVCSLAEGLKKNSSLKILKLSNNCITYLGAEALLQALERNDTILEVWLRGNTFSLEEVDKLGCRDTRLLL
Mu-type opioid receptor, sequence (P35372 whole entry): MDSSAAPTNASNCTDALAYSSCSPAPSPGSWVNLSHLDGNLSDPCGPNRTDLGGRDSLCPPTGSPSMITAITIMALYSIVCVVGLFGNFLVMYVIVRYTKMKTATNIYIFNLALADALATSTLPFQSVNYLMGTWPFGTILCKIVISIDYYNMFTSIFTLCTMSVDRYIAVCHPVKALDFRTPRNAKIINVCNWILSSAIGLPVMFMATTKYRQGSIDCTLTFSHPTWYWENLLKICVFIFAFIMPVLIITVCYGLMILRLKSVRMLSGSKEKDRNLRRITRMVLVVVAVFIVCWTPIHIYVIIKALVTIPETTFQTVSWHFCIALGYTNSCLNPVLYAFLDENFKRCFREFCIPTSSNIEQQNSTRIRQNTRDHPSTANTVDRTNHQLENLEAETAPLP
X-box-binding protein 1, sequence (P17861 whole entry): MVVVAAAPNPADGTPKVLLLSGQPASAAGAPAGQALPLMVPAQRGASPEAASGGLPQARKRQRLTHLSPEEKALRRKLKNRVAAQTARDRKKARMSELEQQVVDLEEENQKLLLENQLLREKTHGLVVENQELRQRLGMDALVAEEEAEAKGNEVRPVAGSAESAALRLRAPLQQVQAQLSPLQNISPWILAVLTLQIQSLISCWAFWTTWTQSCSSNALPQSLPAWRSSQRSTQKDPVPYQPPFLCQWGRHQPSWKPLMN
Delta-type opioid receptor, sequence (P41143 whole entry): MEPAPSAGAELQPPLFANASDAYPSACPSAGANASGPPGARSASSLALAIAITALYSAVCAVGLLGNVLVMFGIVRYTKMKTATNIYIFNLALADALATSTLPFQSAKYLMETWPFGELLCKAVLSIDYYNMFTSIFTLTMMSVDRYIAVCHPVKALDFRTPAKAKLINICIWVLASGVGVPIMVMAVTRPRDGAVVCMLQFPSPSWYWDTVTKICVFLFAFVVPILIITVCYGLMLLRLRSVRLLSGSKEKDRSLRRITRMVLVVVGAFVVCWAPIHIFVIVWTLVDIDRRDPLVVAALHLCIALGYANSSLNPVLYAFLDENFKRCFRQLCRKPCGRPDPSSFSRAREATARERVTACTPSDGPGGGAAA
Hexokinase, sequence (Q38C41 whole entry): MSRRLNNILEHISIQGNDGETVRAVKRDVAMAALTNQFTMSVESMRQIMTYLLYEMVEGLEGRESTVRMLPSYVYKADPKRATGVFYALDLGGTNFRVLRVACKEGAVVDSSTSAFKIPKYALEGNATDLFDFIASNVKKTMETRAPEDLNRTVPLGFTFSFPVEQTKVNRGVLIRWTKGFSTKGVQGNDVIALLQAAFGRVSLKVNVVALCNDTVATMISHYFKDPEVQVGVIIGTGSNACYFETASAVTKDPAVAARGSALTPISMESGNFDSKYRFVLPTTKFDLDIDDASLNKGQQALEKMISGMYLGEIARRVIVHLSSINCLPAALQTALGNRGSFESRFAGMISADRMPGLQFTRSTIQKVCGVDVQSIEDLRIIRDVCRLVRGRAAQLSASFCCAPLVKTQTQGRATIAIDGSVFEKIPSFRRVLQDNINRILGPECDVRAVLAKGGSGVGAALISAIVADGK
Glucose-6-phosphate 1-dehydrogenase, sequence (P11413 whole entry): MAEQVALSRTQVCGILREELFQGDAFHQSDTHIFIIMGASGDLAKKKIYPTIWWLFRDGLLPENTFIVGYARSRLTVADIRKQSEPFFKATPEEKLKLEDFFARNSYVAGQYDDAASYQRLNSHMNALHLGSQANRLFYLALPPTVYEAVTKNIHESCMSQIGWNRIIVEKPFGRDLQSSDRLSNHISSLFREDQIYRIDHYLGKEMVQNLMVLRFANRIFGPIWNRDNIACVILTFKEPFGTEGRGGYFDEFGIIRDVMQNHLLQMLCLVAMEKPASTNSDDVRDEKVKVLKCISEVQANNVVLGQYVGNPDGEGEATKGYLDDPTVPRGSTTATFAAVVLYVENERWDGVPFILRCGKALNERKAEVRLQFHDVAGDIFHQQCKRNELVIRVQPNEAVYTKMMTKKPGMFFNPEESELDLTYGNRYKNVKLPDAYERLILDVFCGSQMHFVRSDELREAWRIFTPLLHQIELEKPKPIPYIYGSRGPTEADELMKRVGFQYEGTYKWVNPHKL
FAD-linked sulfhydryl oxidase ALR, sequence (P55789 whole entry): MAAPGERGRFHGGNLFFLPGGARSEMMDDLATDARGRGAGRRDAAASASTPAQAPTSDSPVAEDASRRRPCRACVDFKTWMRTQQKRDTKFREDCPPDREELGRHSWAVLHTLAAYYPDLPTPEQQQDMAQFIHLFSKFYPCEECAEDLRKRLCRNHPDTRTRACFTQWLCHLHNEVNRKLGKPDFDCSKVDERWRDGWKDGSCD
Beta Lactamase, sequence (Q932Y6 whole entry): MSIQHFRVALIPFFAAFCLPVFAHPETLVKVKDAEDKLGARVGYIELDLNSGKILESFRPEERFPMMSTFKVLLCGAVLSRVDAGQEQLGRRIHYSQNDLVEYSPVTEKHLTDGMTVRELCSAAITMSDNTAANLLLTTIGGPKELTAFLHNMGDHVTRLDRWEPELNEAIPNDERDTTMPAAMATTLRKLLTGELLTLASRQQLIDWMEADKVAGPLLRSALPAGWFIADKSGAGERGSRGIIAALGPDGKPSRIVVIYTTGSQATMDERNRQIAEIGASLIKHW

Question: For `O=S1(=O)C=C(Sc2nnc(-c3ccccc3)o2)c2ccccc21`, which AC50 [1] is on record?
Answer: The AC50 was 1.7 µM (active).

Question: And the IC50 [2]?
Answer: Its IC50 is 5.52 µM (active).

Question: What about the EC50 [3] of the same molecule?
Answer: Its EC50 is > 20 µM (inactive).

Question: And the IC50 [4]?
Answer: Its IC50 is 1.13 µM (active).

Question: What about the IC50 [5] of the same molecule?
Answer: The IC50 was 6.48 µM (inactive).

Question: What about the EC50 [6] of the same molecule?
Answer: Its EC50 is 4.19 µM (active).

Question: What about the IC50 [7] of the same molecule?
Answer: Its IC50 is > 20 µM (inactive).

Question: What about the IC50 [8] of the same molecule?
Answer: Its IC50 is > 20 µM (inactive).

Question: And the EC50 [9]?
Answer: The EC50 was 2.33 µM (active).

Question: And the EC50 [10]?
Answer: Its EC50 is 1.48 µM (active).

Question: And the CC50 [11]?
Answer: The CC50 was 18.5 µM (active).

Question: And the EC50 [12]?
Answer: The EC50 was > 20 µM (inactive).

Question: What about the EC50 [13] of the same molecule?
Answer: Its EC50 is 2.38 µM (active).

Question: And the AC50 [14]?
Answer: Its AC50 is 8.89 µM (active).

Question: And the EC50 [15]?
Answer: The EC50 was 941 nM (active).

Question: What about the EC50 [16] of the same molecule?
Answer: Its EC50 is 2.8 µM (inconclusive).

Question: And the CC50 [17]?
Answer: Its CC50 is 2.87 µM (active).

Question: What about the EC50 [18] of the same molecule?
Answer: Its EC50 is 2.8 µM (active).

Question: What about the AC50 [19] of the same molecule?
Answer: The AC50 was 4 µM (active).

Question: What about the AC50 [20] of the same molecule?
Answer: The AC50 was 281 nM (active).

Question: And the EC50 [21]?
Answer: Its EC50 is 7.16 µM (inconclusive).

Question: What about the CC50 [22] of the same molecule?
Answer: The CC50 was 6.02 µM (active).

Question: What about the AC50 [23] of the same molecule?
Answer: The AC50 was 2.9 µM (active).

Question: And the AC50 [24]?
Answer: The AC50 was 7.3 µM (active).

Question: Which results are given for `Cc1ccc(N2CCN(CCCNC(=O)Cn3c(=O)c4cccn4c4c(C)ccnc43)CC2)cc1`?
Answer: IC50 [25]: 875 nM (active); IC50 [26]: 2.28 µM (active); IC50 [27]: > 32 µM (inactive); IC50 [28]: > 32 µM (inactive)

Question: For `CC(=O)c1ccc(-c2csc(N3CCC(C(N)=O)CC3)n2)cc1`, which EC50 [29] is on record?
Answer: The EC50 was 2.47 µM (active).

Question: What does the source list for `O=c1c2cc(C(F)(F)F)ccc2sn1-c1ccccc1`?
Answer: IC50 [30]: 9.07 µM (active); IC50 [31]: > 25 µM (inactive); IC50 [32]: > 49.8 µM (inactive); IC50 [33]: 18.3 µM (active)

Question: For `O=C(CSC1c2ccccc2-c2ccccc21)N/N=C/c1ccccc1`, which “Absolute IC50 (XBP1)” value [34] is on record?
Answer: The value was 10 µM.

Question: What about the “Absolute IC50 (CHOP)” value [35] of the same molecule?
Answer: Its value is 10 µM.
